Results as given in paper PMC10854695, “Using Flavonoid Substitution Status to Predict Anticancer Effects in Human Melanoma Cancers: An In Vitro Study” (Cancers, 2024).
Where two headings read alike, the source gives them in different places.

Legend:
[1] = system: A375 melanoma cells
Experimental: (§1) The MTT colorimetric assay was performed as a preliminary evaluation of the cytotoxicity of the selected flavonoids according to the method described and validated by Strawa et al. [21]. Briefly, melanoma cells and fibroblasts were seeded in 96-well microplates at a density of 1 × 10^4 cells per well. Fibroblasts were used as a control cell line in order to assess the selectivity of the compounds. […] Subsequently, the cells were washed with PBS, incubated with MTT solution for 2 h, and lysed with dimethyl sulfoxide (DMSO) supplemented with 1% (v/v) Sorensen’s glycine buffer. The absorbance was measured using a microplate reader (EPOCH 2, BioTek, Winooski, VT, USA) at a wavelength of 570 nm. The compounds were used at a final DMSO concentration of no more than 0.1% (v/v) in each well. The results were generated from at least three independent experiments. […] The IC50 values were calculated with GraphPad Prism 9 software (GraphPad Software, San Diego, CA, USA).

[2] = system: human skin fibroblasts (CCD25Sk)
Experimental: (§2) The NRU (neutral red uptake) was conducted as previously described by Szoka and co-workers, with some modifications [22]. Briefly, melanoma cells and fibroblasts were seeded in microplates at the density of 1 × 10^4 cells per well and allowed to adhere for 24 h. […] After treatment, the culture medium was replaced with a neutral red solution (40 µg/mL). An additional 2 h of incubation was performed. The neutral red solution was then removed and the neutral red accumulated in the cells was dissolved in 50% EtOH with 1% of the glacial acetic acid. The absorbance was estimated at 540 nm and IC50 values were calculated using GraphPad Prism software (GraphPad Software, San Diego, CA, USA).

[3] = system: human skin fibroblasts (CCD25Sk); remark: listed apart in the source
[4] = system: C32 melanoma cells
[5] = system: C32 melanoma cells; remark: listed apart in the source
Experimental: as §1

[6] = system: A375 melanoma cells; remark: listed apart in the source
Experimental: as §2

[7] = system: A375 melanoma cells; test: Neutral red uptake (NRU) assay, A375; details: read-out: IC50, cytotoxic activity, NRU assay
Experimental: as §2

[8] = system: C32 melanoma cells; test: Neutral red uptake (NRU) assay, C32
[9] = system: human skin fibroblasts (CCD25Sk); test: Neutral red uptake (NRU) assay, normal cells; details: read-out: IC50, cytotoxic activity, NRU assay, Normal cells (fibroblasts)
Experimental: as §2

[10] = system: cleaved caspase-3 and cleaved caspase-7 in C32 cells; test: Immunofluorescence of cleaved caspase-3/-7, C32; type: cell-based, human; details: C32, 48 h, immunofluorescent staining
Experimental: Firstly, to examine fluorescent signals, cells were placed in the bottom of 96-well black plates at 1 × 10^4 cells per well and permitted to adhere for 24 h. […] After incubating and removing the medium, cells were fixed in 4% paraformaldehyde for 15 min. Later, cells were rinsed three times with PBS and permeabilized with 0.1% Triton X-100 for 5 min at room temperature. The 10% heat-inactivated goat serum in the PBS was used to block non-specific binding. Subsequently, cells were treated with the following antibodies overnight: anti-cleaved caspase 3 and anti-cleaved caspase-7. […] Cell nuclei were stained with Hoechst 33342 and F-actin was stained with Phalloidin-Atto 488. Fluorescent signals were captured using a BD Pathway 855 confocal microscope (Becton Dickinson, Franklin Lakes, NJ, USA). The mean fluorescence intensity was calculated using ImageJ software (National Institutes of Health, Bethesda, Rockville, MD, USA).

[11] = system: C32 melanoma cells; test: [3H]-thymidine incorporation (DNA biosynthesis), C32; type: cell-based, human; details: read-out: IC50, effect on DNA biosynthesis ([3H]-thymidine incorporation)
Experimental: (§3) The inhibition of DNA biosynthesis was evaluated using [^3H]-thymidine incorporation into the DNA of melanoma cells (C32, A375) and fibroblasts treated with the studied compounds [21]. The cells were briefly seeded in 24-well plates (1 × 10^5 cells per well) and allowed to adhere for 24 h. […] After incubation for 24, 48, and 72 h, the cells were rinsed three times with PBS. Then, cells were lysed in 1 mL of 0.1 M NaOH containing 1% SDS. The cell lysate was moved into scintillation vials containing scintillation liquid, and the radioactivity of the samples was measured using a liquid scintillation analyzer (Perkin-Elmer, Waltham, MA, USA).

[12] = system: human skin fibroblasts (CCD25Sk); test: [3H]-thymidine incorporation (DNA biosynthesis), normal cells; type: cell-based; details: Homo sapiens, Skin fibroblast, read-out: IC50, effect on DNA biosynthesis ([3H]-thymidine incorporation)
Experimental: as §3

[13] = system: caspases, PARP, phospho-RSK in A375 cells; test: Western immunoblot of apoptosis mediators and RSK, A375; type: cell-based, human; details: A375, 48 h, Western blot
Experimental: (§4) Floating cells were harvested by centrifugation of the conditioned media (300× g, 5 min). Cell pellet and adherent cells were lysed in a cell lysis buffer supplemented with inhibitors of proteases and phosphatases. The cell lysate was sonicated (2 × 10 s) on ice with an ultrasonic homogenizer (UP200S, Hielscher Ultrasonics GmbH, Teltow, Germany) and centrifuged for 10 min at 10,000× g. The supernatant was collected and stored in a freezer at −70 °C. Protein concentrations in the cell supernatants were determined using a Lowry assay. Obtained proteins were dissolved on SDS-PAGE gels (7.5%, 10%, or 12%) using the Mini-Protean Tetra system. The proteins were transferred to nitrocellulose membranes using the Mini Trans-Blot Cell wet blotting system. The 5% skim milk was used to block membranes. Then, membranes were probed for 24 h at 4 °C with the following antibodies: anti-phospho-RSK, anti-RSK, anti-PARP, anti-cleaved PARP, anti-caspase-8, anti-caspase-9, anti-caspase-7, anti-caspase-3, and anti-actin. Membranes were incubated with an ECL-HRP (enhanced chemiluminescence-horseradish peroxidase) substrate, and the signal was spotted using the BioSpectrum Imaging System and VisionWorks LS software 7.0 (Ultra-Violet Products, Ltd., San Gabriel, CA, USA). The intensity of the bands was quantified by densitometric analysis using UVIBand software, version 15.08d (Uvitec Ltd., Cambridge, UK).

[14] = MTT cell viability assay, normal cells; details: human;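 further: fibroblasts served as non-cancer comparison line for selectivity versus melanoma cells, MTT reduction read as absorbance at 570 nm after 2 h dye exposure, compounds in ≤0.1% DMSO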
[15] = system: A375 melanoma cells; test: MTT cell viability assay, A375;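 further: Read-out is formazan absorbance at 570 nm after 2 h with MTT, with compounds in at most 0.1% v/v DMSO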
Experimental: as §1

[16] = system: C32 melanoma cells; test: MTT cell viability assay, C32; details: read-out: IC50, cytotoxic activity, MTT test;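 further: MTT added for 2 h, cells lysed in DMSO, absorbance read at 570 nm, compound vehicle kept at or below 0.1% DMSO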
Experimental: as §1

[17] = system: caspases, PARP, phospho-RSK in C32 cells; test: Western immunoblot of apoptosis mediators and RSK, C32; type: cell-based, human; details: C32, 48 h, Western blot
Experimental: as §4

[18] = Neutral red uptake (NRU) assay, normal cells; details: human
Experimental: as §2

[19] = system: A375 melanoma cells; test: [3H]-thymidine incorporation (DNA biosynthesis), A375; type: cell-based, human; details: read-out: IC50, effect on DNA biosynthesis ([3H]-thymidine incorporation)
Experimental: as §3

[20] = system: A375 melanoma cells; test: Apoptosis assay, annexin V/PI flow cytometry, A375; type: cell-based, human; details: 48 h
Experimental: Firstly, cells were placed in 6-well plates at a density of 1 × 10^5 cells per well and allowed to adhere for 24 h. Then, cells were treated with 25 µM, 50 µM, and 100 μM of the selected flavonoids (1, 6, 15, 16, 17, 37) and incubated for 48 h. Floating and adherent cells were collected and assayed using the manufacturer’s protocol supported by the Dead Cell Apoptosis Kit for flow cytometry. Concisely, 100 μL of an annexin-binding buffer containing a 5 μL annexin V-FITC conjugate solution and 1 μg/mL PI (propidium iodide) was used to disperse the cells. After 15 min of incubation, an additional 400 μL of the mentioned buffer was added. The cells were analyzed with a DxFLEX flow cytometer (Beckman Coulter, Brea, CA, USA).

[21] = system: human skin fibroblasts (CCD25Sk); test: MTT cell viability assay, normal cells; details: read-out: IC50, cytotoxic activity, MTT test, Normal cells (fibroblasts);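 further: fibroblasts served as non-cancer comparison line for selectivity versus melanoma cells, MTT reduction read as absorbance at 570 nm after 2 h dye exposure, compounds in ≤0.1% DMSO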
[22] = read-out: IC50, cytotoxic activity, NRU assay, C32, 24 h
[23] = read-out: IC50, cytotoxic activity, NRU assay, C32, 48 h
[24] = read-out: IC50, cytotoxic activity, NRU assay, C32, 72 h
[25] = human skin fibroblasts (CCD25Sk)
[26] = Homo sapiens, A-375, A375, 24 h
[27] = Homo sapiens, A-375, A375, 48 h
[28] = Homo sapiens, A-375, A375, 72 h

Compound: O=c1cc(-c2ccc(O)c(O)c2)oc2cc(OC3OC(CO)C(O)C(O)C3OC3OCC(O)C(O)C3O)cc(O)c12 (stereo not shown) [Compound 9, luteolin 7-O-sambubioside]
- IC50 [1]: > 200 µM
- IC50 [2]: > 200 µM
- IC50 [3]: > 200 µM
- IC50 [4]: > 200 µM
- IC50 [5]: > 200 µM
- IC50 [6]: > 200 µM

Compound: CC(=O)Oc1ccc(-c2cc(=O)c3c(O)cc(O)c([C@@H]4OC[C@@H](O)[C@H](O)[C@H]4O[C@@H]4O[C@H](CO)[C@@H](O)[C@H](O)[C@H]4O)c3o2)cc1O [Compound 10, 5,7,3′-trihydroxy-4′-acetoxy-flavone-8-C-xyloside-2″-O-glucoside]
- IC50 ([7]; A375, 24 h): > 200 µM
- IC50 ([7]; A375, 48 h): > 200 µM
- IC50 ([7]; A375, 72 h): > 200 µM
- IC50 [1]: > 200 µM
- IC50 [3]: > 200 µM
- IC50 [8, 22]: > 200 µM
- IC50 [8, 23]: > 200 µM
- IC50 [8, 24]: > 200 µM
- IC50 [5]: > 200 µM
- IC50 ([9]; 24 h): > 200 µM
- IC50 ([9]; 48 h): > 200 µM
- IC50 ([9]; 72 h): > 200 µM

Compound: COc1ccc(-c2cc(=O)c3c(O)cc(O)c([C@@H]4OC[C@@H](O)[C@H](O)[C@H]4O[C@@H]4O[C@H](CO)[C@@H](O)[C@H](O)[C@H]4O)c3o2)cc1O [Compound 11, 5,7,3′-trihydroxy-4′-methoxyflavone-8-C-xyloside-2″-O-glucoside]
- IC50 ([7]; A375, 24 h): > 200 µM
- IC50 ([7]; A375, 48 h): > 200 µM
- IC50 ([7]; A375, 72 h): > 200 µM
- IC50 [1]: > 200 µM
- IC50 [3]: > 200 µM
- IC50 [8, 22]: > 200 µM
- IC50 [8, 23]: > 200 µM
- IC50 [8, 24]: > 200 µM
- IC50 [5]: > 200 µM
- IC50 ([9]; 24 h): > 200 µM
- IC50 ([9]; 48 h): > 200 µM
- IC50 ([9]; 72 h): > 200 µM

Compound: COc1cc(-c2cc(=O)c3c(O)cc(O)c([C@@H]4OC[C@@H](O)[C@H](O)[C@H]4O[C@@H]4O[C@H](CO)[C@@H](OC(C)=O)[C@H](O)[C@H]4O)c3o2)ccc1OC(C)=O [Compound 12, 5,7-dihydroxy-3′-methoxy-4′-acetoxyflavone-8-C-xyloside-2″-O-(4‴-acetoxy)-glucoside]
- IC50 [1]: > 200 µM
- IC50 [2]: > 200 µM
- IC50 [3]: > 200 µM
- IC50 [4]: > 200 µM
- IC50 [5]: > 200 µM
- IC50 [6]: > 200 µM

Compound: COc1cc(-c2cc(=O)c3c(O)cc(O)c(C4OCC(O)C(O)C4OC4OC(CO)C(OC(C)=O)C(O)C4O)c3o2)ccc1OC(C)=O (stereo not shown) [Compound 13, 5,7-dihydroxy-3′-methoxy-4′-acetoxyflavone-8-C-arabinoside-2″-O-(4‴-acetoxy)-glucoside]
- IC50 [1]: > 200 µM
- IC50 [2]: > 200 µM
- IC50 [3]: > 200 µM
- IC50 [4]: > 200 µM
- IC50 [5]: > 200 µM
- IC50 [6]: > 200 µM

Compound: O=c1cc(-c2ccccc2)oc2ccc(O)c(O)c12 [Compound 15, 5,6-dihydroxyflavone]
- caspase-3 expression [10]: notably extended
- IC50 ([7]; Homo sapiens, A-375, 24 h): 53.3 ± 4.6 µM
- IC50 ([7]; Homo sapiens, A-375, 48 h): 16 ± 1.1 µM
- IC50 ([7]; Homo sapiens, A-375, 72 h): 13.6 ± 1.1 µM
- IC50 ([11]; C32, 48 h): 20 ± 1.9 µM
- IC50 ([11]; Homo sapiens, C32, C32, 24 h): > 200 µM
- IC50 ([11]; Homo sapiens, C32, C32, 48 h): 20.1 ± 0.98 µM
- IC50 ([11]; Homo sapiens, C32, C32, 72 h): 20.3 ± 1.2 µM
- IC50 ([12]; 24 h): 175 ± 7.6 µM
- IC50 ([12]; 48 h): > 200 µM
- IC50 ([12]; 72 h): > 200 µM
- expression of cleaved caspase-8 [13]: increased
- IC50 at 24 h [14, 25]: > 200 µM
- IC50 at 48 h [14, 25]: > 200 µM
- IC50 at 72 h [14, 25]: > 200 µM
- IC50 ([15]; Homo sapiens, A-375, 24 h, read-out: IC50, cytotoxic activity, MTT test, A375, 24 h): 86 ± 6.3 µM
- IC50 ([15]; Homo sapiens, A-375, 48 h, read-out: IC50, cytotoxic activity, MTT test, A375, 48 h): 36.4 ± 2 µM
- IC50 ([15]; Homo sapiens, A-375, 72 h, read-out: IC50, cytotoxic activity, MTT test, A375, 72 h): 26.4 ± 1.2 µM
- IC50 ([8]; Homo sapiens, C32, 24 h, read-out: IC50, cytotoxic activity, NRU assay, C32, 24 h): 72.6 ± 5.5 µM
- IC50 ([8]; Homo sapiens, C32, 48 h, read-out: IC50, cytotoxic activity, NRU assay, C32, 48 h): 18.2 ± 2.1 µM
- IC50 ([8]; Homo sapiens, C32, 72 h, read-out: IC50, cytotoxic activity, NRU assay, C32, 72 h): 15.4 ± 1.1 µM
- IC50 ([16]; Homo sapiens, C32, 24 h): 100 to 200 µM
- IC50 ([16]; Homo sapiens, C32, 48 h): 47.5 ± 3.5 µM
- IC50 ([16]; Homo sapiens, C32, 72 h): 23.5 ± 1.9 µM
- cleaved PARP and caspase-9 [17]: generated cleaved PARP and caspase-9
- IC50 at 24 h [18, 25]: > 200 µM
- IC50 at 48 h [18, 25]: 100 to 200 µM
- IC50 at 72 h [18, 25]: 100 to 200 µM
- IC50 ([19]; A375, 48 h): 32.4 ± 2.4 µM
- IC50 [19, 26]: > 200 µM
- IC50 [19, 27]: 32.4 ± 0.49 µM
- IC50 [19, 28]: 31.4 ± 1.7 µM
- level of early apoptotic cells ([20]; A375, 25 µM): 42.0 ± 4.5%
- level of late apoptotic cells ([20]; A375, 25 µM): 8.9 ± 2.2%

Compound: O=c1c(-c2ccc(O)cc2)coc2cc(O)cc(O)c12 [Compound 37, genistein]
- caspase-3 expression [10]: notably extended
- IC50 ([7]; Homo sapiens, A-375, 24 h): 49.2 ± 3.2 µM
- IC50 ([7]; Homo sapiens, A-375, 48 h): 32.3 ± 3.5 µM
- IC50 ([7]; Homo sapiens, A-375, 72 h): 19.3 ± 2.2 µM
- IC50 ([11]; C32, 48 h): 18.5 ± 0.7 µM
- IC50 ([11]; Homo sapiens, C32, C32, 24 h): 25.4 ± 1.3 µM
- IC50 ([11]; Homo sapiens, C32, C32, 48 h): 18.5 ± 0.21 µM
- IC50 ([11]; Homo sapiens, C32, C32, 72 h): 19.1 ± 0.3 µM
- IC50 ([12]; 24 h): > 200 µM
- IC50 ([12]; 48 h): > 200 µM
- IC50 ([12]; 72 h): > 200 µM
- cleavage of initiator caspases, caspase-9 and caspase-8 [13]: cleavage of both initiator caspases
- levels of the caspases-3 and -7 zymogens [13]: decreased levels
- phosphorylation of the RSK protein [13]: impaired
- IC50 at 24 h [14]: > 200 µM
- IC50 at 48 h [14]: 100 to 200 µM
- IC50 at 72 h [14]: 56.8 ± 4.1 µM
- IC50 ([15]; Homo sapiens, A-375, 24 h, read-out: IC50, cytotoxic activity, MTT test): 93.1 ± 5.8 µM
- IC50 ([15]; Homo sapiens, A-375, 48 h, read-out: IC50, cytotoxic activity, MTT test): 60.9 ± 4.2 µM
- IC50 ([8]; Homo sapiens, C32, 24 h, read-out: IC50, cytotoxic activity, NRU assay): 100 to 200 µM
- IC50 ([8]; Homo sapiens, C32, 48 h, read-out: IC50, cytotoxic activity, NRU assay): 31.5 ± 2.8 µM
- IC50 ([8]; Homo sapiens, C32, 72 h, read-out: IC50, cytotoxic activity, NRU assay): 14.4 ± 2.1 µM
- IC50 ([16]; Homo sapiens, C32, 24 h): > 200 µM
- IC50 ([16]; Homo sapiens, C32, 48 h): > 200 µM
- IC50 ([16]; Homo sapiens, C32, 72 h): 51.1 ± 3.5 µM
- cleaved PARP and caspase-9 [17]: generated cleaved PARP and caspase-9
- phosphorylation of RSK [17]: inhibited
- IC50 at 24 h [18]: > 200 µM
- IC50 at 48 h [18]: 57.8 ± 4 µM
- IC50 at 72 h [18]: 38.6 ± 3.7 µM
- IC50 ([19]; A375, 48 h): 28 ± 0.8 µM
- IC50 [19, 26]: 154 ± 10.8 µM
- IC50 [19, 27]: 28.1 ± 0.87 µM
- IC50 [19, 28]: 24.2 ± 1.5 µM
- level of early apoptotic cells ([20]; A375, 50 µM): 38.1 ± 4.2%
- level of late apoptotic cells ([20]; A375, 50 µM): 8.9 ± 1.9%

Compound: kaempferol 3-O-galactoside [Compound 22]
- IC50 ([7]; A375, 24 h): > 200 µM
- IC50 ([7]; A375, 48 h): > 200 µM
- IC50 ([7]; A375, 72 h): > 200 µM
- IC50 ([21]; 24 h): > 200 µM
- IC50 ([21]; 48 h): > 200 µM
- IC50 ([21]; 72 h): > 200 µM
- IC50 ([15]; read-out: IC50, cytotoxic activity, MTT test, A375, 24 h): > 200 µM
- IC50 ([15]; read-out: IC50, cytotoxic activity, MTT test, A375, 48 h): > 200 µM
- IC50 ([15]; read-out: IC50, cytotoxic activity, MTT test, A375, 72 h): > 200 µM
- IC50 [8, 22]: > 200 µM
- IC50 [8, 23]: > 200 µM
- IC50 [8, 24]: > 200 µM
- IC50 ([16]; C32, 24 h): > 200 µM
- IC50 ([16]; C32, 48 h): > 200 µM
- IC50 ([16]; C32, 72 h): > 200 µM
- IC50 ([9]; 24 h): > 200 µM
- IC50 ([9]; 48 h): > 200 µM
- IC50 ([9]; 72 h): > 200 µM
